Measured values taken from US11234982B2, “Methods for treating ocular surface pain” (NOVARTIS AG, priority 2019, dated 2022).

Tested on: cornea
Test: Esthesiometry assessment (Part 3): corneal sensitivity, anesthetic effect
Assay type: in vivo, human
Settings: for Anesthetic effect on the cornea (esthesiometry): single eye drop: tetracaine 0.5%, diclofenac 0.1%, compound I 2.5%
Excerpt: Part 3 was an esthesiometry assessment to evaluate the anesthetic properties of compound I. Part 3 of the study had four arms, with compound I, vehicle, tetracaine (0.5% ophthalmic solution, used as a positive control) and diclofenac sodium (0.1% ophthalmic solution, used as the active NSAID comparator). Ocular anesthetic was selected because of its established anesthetic effect; however it is not the standard of care due to its negative effect on wound healing. NSAID is the current standard of care for corneal pain after PRK with minimal anesthetic but significant pain control properties. Vehicle eye drops were used as a negative control to enable better determination of the potential anesthetic effect. Twelve healthy subjects, who met the eligibility criteria, were randomized to receive a single eye drop of 4 study treatments, each during 1 of 4 different study days (Days 1, 4, 7 and 10). Each subject was randomized to receive the study treatment according to one of the following four sequences: • Sequence 1: Anesthetic, NSAID, compound I 2.5%, Vehicle • Sequence 2: NSAID, Vehicle, Anesthetic, compound I 2.5% • Sequence 3: Vehicle, compound I 2.5%, NSAID, Anesthetic • Sequence 4: compound I 2.5%, Anesthetic, Vehicle, NSAID
Inclusion Criteria: • Written informed consent was obtained before any assessment was performed. • Healthy male and female subjects aged 18 to 50 years (inclusive), and in good health as determined by past medical history, physical examination, vital signs, ECG, and laboratory tests at Screening. • At Screening, and Baseline, vital signs (systolic and diastolic blood pressure (BP) and pulse rate) were assessed in the sitting position after the subject had rested for at least 3 minutes and again after 3 minutes in the standing position. […] BMI=Body weight (kg)/[Height (m)]^2 • Subjects who were able to communicate well with the Investigator, to understand and comply with the requirements of the study. • For Part 3, subjects Baseline levels of eye sensitivity were to be in the range of 50 to 60 mm (inclusive) as measured by the Cochet-Bonnet esthesiometer.
The first-in-human study further evaluated potential anesthetic effect of topical ocular 2.5% compound I by esthesiometry testing, i.e. measurement of the filament length (cm) when the threshold of cornea touch is perceived.

SMILES	Anesthetic effect on the cornea (esthesiometry)	Corneal sensitivity, least squares means, Test vs Ref: vs Diclofenac 0.1% (Tetracaine 0.5% (N=12) vs Diclofenac 0.1% (N=12) at 2.5, 10 and 20 minutes post-dose)	Corneal sensitivity, least squares means, Test vs Ref: vs Vehicle (Tetracaine 0.5% (N=12) vs Vehicle (N=12) at 2.5, 10 and 20 minutes post-dose)
O=C(O)Cc1ccccc1Nc1c(Cl)cccc1Cl [diclofenac, diclofenac sodium, reference compound]	no anesthetic effect	–	–
CCCCNc1ccc(C(=O)OCCN(C)C)cc1 [tetracaine, reference compound]	had an anesthetic effect	statistical and clinical significance were observed	statistical and clinical significance were observed
